Results on 5 substances are retold here after paper PMC9376960, “Ruthenium(II)–Tris-pyrazolylmethane Complexes Inhibit Cancer Cell Growth by Disrupting Mitochondrial Calcium Homeostasis” (Journal of Medicinal Chemistry, 2022).

Marks after values point to notes of the source that are not given here.

Data set [1] relates to mitochondria of HCT116 cells. In words: Ru content in isolated mitochondria (ICP-MS). The class given is cell-based, human. As to conditions: HCT116, 10 μM, 24 h. As for the experimental part:
The HCT116 cells were seeded at a density of 3 × 10^6 cells/10 mL Petri dish and incubated overnight. The cells were treated with Ru complexes (10 μM) for 24 h, harvested, and washed with ice-cold PBS, and mitochondrial fractions were extracted by the Mitochondrial Isolation Kit (MITOISO2, Sigma-Aldrich) according to the manufacturer’s instructions. The Ru content in each sample was evaluated by ICP-MS. The measurement was performed in triplicate.

Data set [2] in a line: Stability and chloride/water exchange in D2O (NMR). The class given is physicochemical. As to conditions: for Aquo species % in D2O after 48h: 48 h at 37 °C; for residual complex % in D2O: sum of chloro and aquo complexes; for Aquo species % in D2O at t0: t0 = after 2 h stirring in D2O. The protocol: The same samples prepared at point (a) were used in this experiment, apart from complex 1 that was dissolved in DMSO-d6/D2O 4:1 v/v solution (0.7 mL; [Ru] = approx. […]) containing Me2SO2 as the standard.[115] After ^1H and ^31P{^1H} NMR analyses described above at point (a) (time = t0), samples were heated at 37 °C for 48 h. After cooling to room temperature, ^1H and ^31P NMR spectra were recorded. The percentage of starting complex + related aquo complex was calculated by the relative integral (C^βH signal in the ^1H spectrum) with respect to Me2SO2 (c = 3.3 × 10^–3 mol·L^–1; δ/ppm = 3.14 in D2O; δ/ppm = 2.95 in DMSO-d6/D2O 4:1 v/v), see Table 2 and S1.

Data set [3] concerns cancer cell lines (MCF-7, HeLa, 518A2, HCT116, RD) vs noncancerous MRC-5pd30. As to the kind of experiment: MTT panel: average IC50 of cancer cell lines and selectivity index. In kind it is cell-based, human. As to conditions: for SI (selectivity index): IC50 for noncancerous MRC-5pd30 vs the average IC50 value of cancer cell lines; for IC50: average of IC50 values related to cancer cell lines. As for the experimental part: (§1) In vitro antiproliferative activity of Ru complexes was determined by the MTT or, alternatively, SRB assay as already described,[84] after 72 h of incubation of cells with various concentrations of the Ru complex. The reported IC50 values are an average of three independent experiments, each consisting of three replicates per concentration.

The next data set deals with CHO-K1. As to the kind of experiment: MTT assay, wild-type cells. In kind it is cell-based, Chinese hamster. As to conditions: 72 h. The source says: (§2) The human cervical carcinoma HeLa cells and human colorectal carcinoma cells HCT116 were kindly supplied by Professor B. Keppler, University of Vienna (Austria). Human rhabdomyosarcoma RD cells were purchased from the American Type Culture Collection (ATCC, Manassas, VA). Human breast cancer MCF-7 cells, human skin melanoma 518A2 cells, and human MRC5pd30 cells derived from normal lung tissue were purchased from the European Collection of Authenticated Cell Cultures (ECACC) (Salisbury, U.K.). Chinese hamster ovary CHO-K1 cell line (wild type) and its derivative MMC-2 carrying the ERCC3/XPB mutation (NER-deficient) cell line were kindly supplied by Dr. […], Cancer Research Institute, Slovak Academy of Sciences, Bratislava (Slovakia). In vitro antiproliferative activity of Ru complexes was determined by the MTT or, alternatively, SRB assay as already described,[84] after 72 h of incubation of cells with various concentrations of the Ru complex. The reported IC50 values are an average of three independent experiments, each consisting of three replicates per concentration.
In general terms: Tetrazolium assays rely on reduction of a dye to a coloured formazan, in cell work by metabolically active cells.

Data set [4] can be described thus: Stability and speciation in deuterated cell culture medium (DMEM-d/DMSO-d6, NMR). The class given is physicochemical. The note with it: for residual complex % in DMEM-d/DMSO-d6: after 24 h at 37 °C; for Aquo species % in DMEM-d/DMSO-d6 at t0 / Aquo species % in DMEM-d/DMSO-d6 after 24h: DMSO-d6-DMEM-d 1:4 v/v; for Aquo species % in DMEM-d/DMSO-d6 after 24h: 37 °C. The protocol:
Powdered DMEM cell culture medium (1000 mg/L glucose and L-glutamine, without sodium bicarbonate and phenol red; D2902; Sigma-Aldrich) was dissolved in D2O (10 mg/mL), according to the manufacturer’s instructions. The solution of deuterated cell culture medium (“DMEM-d”) was treated with Me2SO2 (6.6 × 10^–3 M) and NaH2PO4/Na2HPO4 (0.10 M, pD = 7.5)[120]−[122] and then stored at 4 °C under N2. The selected ruthenium compound (2–3 mg) was dissolved in DMSO-d6 (0.14 mL; 0.18 mL for 4) and then diluted with DMEM-d up to 0.75 mL total volume (cRu ca. 4 × 10^–3 M). The mixture was stirred for 30 min, then filtered over celite, and transferred into an NMR tube. The resulting yellow solution was analyzed by ^1H and ^31P NMR (delay time = 3 s; number of scans = 20) and then heated at 37 °C for 24 h. After cooling to room temperature, NMR analyses were repeated. Compound 1 was instead dissolved in a DMSO-d6/DMEM-d 4:1 v/v solution (0.7 mL; [Ru] = approx. 3 × 10^–3 M) containing Me2SO2 as the internal standard.[115] The percentage of the starting complex + related aquo complex was calculated by the relative integral with respect to Me2SO2 (δ/ppm = 3.16 in DMSO-d6/DMEM-d 1:4 and 1:3 v/v; δ/ppm = 2.95 in DMSO-d6/DMEM-d 4:1 v/v).

The subject of the next data set is HCT116. As to the kind of experiment: SRB antiproliferative assay. The class given is cell-based, human. As to conditions: SRB test, 72 h; mean ± SD. As for the experimental part:
as §1
A general note: The SRB assay estimates cell density from bound dye.

In a further data set the test system is MMC-2. In words: MTT assay, NER-deficient cells. The class given is cell-based, Chinese hamster. As to conditions: 72 h.
Description: as §2

Data set [5] can be described thus: Solubility in water (D2O) by 1H NMR. In kind it is physicochemical. As to conditions: for solubility: D2O, 21°C, sum of chloro and aquo complex after 2 h, 1H NMR, Me2SO2 standard. The protocol: A suspension of the selected ruthenium complex (3–5 mg) in a D2O solution (0.7 mL) containing Me2SO2 as the internal standard[115] (3.36 × 10^–3 M) was vigorously stirred at 21 °C for 2 h. The resulting saturated solution was filtered over celite, transferred into an NMR tube, and analyzed by ^1H NMR and ^31P NMR spectroscopy (delay time = 3 s; number of scans = 20). The concentration (solubility) was calculated by the relative integral (starting complex + aquo complex, C^βH signal in the ^1H spectrum) with respect to Me2SO2 (δ/ppm = 3.14). NMR data are given in the Supporting Information (Figures S36–S47).

The subject of data set [6] is mitochondrial membrane potential of HCT116 cells. In words: Mitochondrial membrane potential, TMRE assay. In kind it is cell-based, human. As to conditions: 5 h; 10 μM and 2x or 4x IC50,72h. The protocol:
Effects of Ru complexes on mitochondrial membrane potential were assessed by TMRE staining of HCT116 cells after treatment. First, HCT116 cells were seeded on a six-well plate at a 1.5 × 10^5 cells/well density. The next day, the cells were treated with equimolar (10 μM) and equitoxic (twofold or fourfold IC50,72h) concentrations of Ru complexes for 5 h. Then, the cells were collected and stained with 100 nM TMRE in a complete DMEM medium for 30 min at 37 °C in the dark. The TMRE-containing medium was then replaced with PBS, and cells were analyzed by a BD FACSverse flow cytometer (λex = 488 nm, λem = 586 nm).

The mark [7] stands for this setting: DMSO-d6/DMEM-d 1:4 v/v, sum of chloro and aquo complexes.

Usually IC50 stands for the concentration at which inhibition is half-maximal. Turning to [RuCl(κ^3-tpm)(PPh3)2]Cl [compound 1], the “Ru in isolated mitochondria” value in [1] amounted to 467 ± 66 pg Ru/10^6 cells. Moreover, in [2] (DMSO-d6/D2O (4:1 v/v) mixture, after 48 h at 37 °C), the “residual complex % in DMSO-d6/D2O” value is recorded as 69 ^c %. The “SI (selectivity index)” value in [3] turned out to be 2.3. The IC50 in data set [3] was determined as 2.5 ± 0.3 µM; in the data set on CHO-K1 it was 6.3 ± 0.2 µM; in the data set with HCT116, 0.45 ± 0.05 µM; with MMC-2, 7.7 ± 0.2 µM. The “residual complex % in DMEM-d/DMSO-d6” value in [4] (compound 1: DMSO-d6/DMEM-d 4:1 v/v) came to 88%. In addition, the “solubility in water” value in [5] is “insoluble in water”. Besides, the “decrease of TMRE fluorescence (mitochondrial depolarization)” value (“decrease of TMRE fluorescence” below) in [6] is “more pronounced”.

In the case of “[RuCl(κ^3-tpm)(PPh3)(CNCy)]Cl [compound 8]”, the “Ru in isolated mitochondria” value in data set [1] was found to be 70 ± 15 pg Ru/10^6 cells. Also, in data set [2], the “Aquo species % in D2O after 48h” value worked out at 90% and the “Aquo species % in D2O at t0” value amounted to 33%. The “residual complex % in D2O” value in data set [2] (after 48 h at 37 °C) is listed as 92%. For the same substance, in data set [3], the “SI (selectivity index)” value came to 2.0 and half-maximal inhibition (IC50) required 9.9 ± 1.5 µM. It took 16 ± 4 µM to reach half-maximal inhibition with CHO-K1 (IC50). In data set [4], the “Aquo species % in DMEM-d/DMSO-d6 at t0” value was determined as 0% and the “Aquo species % in DMEM-d/DMSO-d6 after 24h” value (shortened to “Aquo species % … after 24h”) was found to be 16%. Also, the “residual complex % in DMEM-d/DMSO-d6” value in data set [4] (setting [7]) stood at 98%. In the data set with HCT116, the IC50 amounted to 5.2 ± 0.5 µM. This substance also gave an IC50 with MMC-2 of 16 ± 3 µM. Also, the solubility in [5] is given as 1.1 10^–3 mol·L^–1. Also, in data set [6], the “decrease of TMRE fluorescence” value is “more pronounced”.

Consider “[RuCl(κ^3-tpm)(PPh3){CNCH2P(O)(OEt2)2}]Cl [compound 9]”, for which, in data set [2], the “Aquo species % in D2O after 48h” value came out at 73% and the “Aquo species % in D2O at t0” value is 0%. Also, the “residual complex % in D2O” value in [2] (after 48 h at 37 °C) came to 93%. In addition, in data set [3], the “SI (selectivity index)” value is given as 1.5 and the midpoint of inhibition, the IC50, lay at 35.2 ± 5 µM. Also, in data set [4], the “Aquo species % in DMEM-d/DMSO-d6 at t0” value is recorded as 0% and the “Aquo species % … after 24h” value was determined as 17%. Also, the “residual complex % in DMEM-d/DMSO-d6” value in data set [4] (setting [7]) is 97%. In the data set on HCT116, the IC50 was 29 ± 3 µM. Moreover, the solubility in data set [5] is 4.6 10^–3 mol·L^–1.

As for “[RuCl(κ^3-tpm)(PPh3){NCHN(Me)(CH)2}]Cl [compound 3]”, in data set [2], the “Aquo species % in D2O after 48h” value is given as 93% and the “Aquo species % in D2O at t0” value stood at 75%. Moreover, the “residual complex % in D2O” value in data set [2] (after 48 h at 37 °C) is recorded as 100%. In addition, in [3], the “SI (selectivity index)” value stood at 2.0 and the IC50 was 42.8 ± 4.2 µM. Besides, in data set [4], the “Aquo species % in DMEM-d/DMSO-d6 at t0” value was determined as 0% and the “Aquo species % … after 24h” value turned out to be 66%. In [4] (setting [7]), the “residual complex % in DMEM-d/DMSO-d6” value is listed as 100%. This substance returned an IC50 with HCT116 of 16 ± 2 µM. Moreover, the solubility in data set [5] was 3.4 10^–3 mol·L^–1.

“[RuCl(κ^3-tpm)(PPh3){P(OMe)3}]Cl [compound 7]”: the “Ru in isolated mitochondria” value in data set [1] was determined as 127 ± 24 pg Ru/10^6 cells. For the same substance, the “Aquo species % in D2O after 48h” value in data set [2] is recorded as 83%. Besides, the “residual complex % in D2O” value in [2] (after 48 h at 37 °C) is on record as 100%. For the same substance, in data set [2], the “Aquo species % in D2O at t0” value was determined as 57%. Moreover, the “SI (selectivity index)” value in data set [3] stood at 3.4. The IC50 amounted to 7.1 ± 1 µM in data set [3], 25.6 ± 0.5 µM in the data set on CHO-K1, 5.8 ± 0.6 µM in the data set on HCT116 and 33 ± 2 µM in the data set on MMC-2. In [4], the “Aquo species % in DMEM-d/DMSO-d6 at t0” value came out at 0%. Moreover, the “Aquo species % … after 24h” value in data set [4] turned out to be 16%. The “residual complex % in DMEM-d/DMSO-d6” value in [4] (setting [7]) is on record as 95%. The solubility in [5] is 3.1 10^–3 mol·L^–1. Besides, the “decrease of TMRE fluorescence” value in data set [6] is “less potent in reducing mitochondrial membrane potential”.
